# Source: patent US20190359653A1, “SELECTIVE PEPTIDE INHIBITORS OF FRIZZLED” (Genentech, Inc., priority 2016, published 2019)
# “Also recorded” adds a separate entry of the source.
# Key:
# [1] = molecular target: T1, Wnt5a binding to FZD4 CRD (Homo sapiens, UniProt Q9ULV1); experiment: ELISA of biotinylated Wnt5a binding to FZD CRD-Fc; details: peptide 0-10 μM
# T1 construct: hFZD4 CRD-Fc (cat no. 5847-FZ); purchased R&D systems 5847-FZ
# T1 sequence (Q9ULV1 40-161 limits assumed): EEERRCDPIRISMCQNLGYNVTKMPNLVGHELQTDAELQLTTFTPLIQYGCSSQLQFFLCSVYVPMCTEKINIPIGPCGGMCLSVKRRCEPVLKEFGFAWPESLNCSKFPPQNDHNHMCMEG
# Procedure: 384-well Maxisorp plates (cat. no. 464718; Thermo Scientific) were incubated with 30 μL of Neutravidin (cat. no. 31000, Thermo Scientific; 2 μg/mL in PBS) overnight at 4° C. Plates were then washed with PBST and blocked with PBS/1% BSA for 1 hour at RT and then washed with PBST prior to further processing. The binding assay was conducted in 96 well plates (cat no. 83007-374; VWR) which were blocked with PBS/1% BSA overnight at 4° C. hFZD4 CRD-Fc or hFZD7 CRD-Fc (63 ng/mL) were incubated with either Bio-Wnt3a (25 ng/mL) or Bio-Wnt5a (50 ng/mL) in the presence of 4-fold serial dilutions of the indicated peptide in PBS overnight at 4° C. All assays included hFZD9 CRD-mIgG2A protein as a negative control. hFZD7 CRD-His was suspended in 150 mM NaCl, 50 mM Tris-HCl at pH 7.5 and when used in assays an equal volume of the same buffer control was used. The binding assay mixtures were transferred to the Neutravidin coated plates and incubated for ˜1 h at RT. The wells were then washed with PBST, incubated with anti-hIgG1-HRP (1:10,000 suspended in PBS supplemented with 1% BSA; cat. no. A18817, Invitrogen), and washed again with PBST. The signal was developed with the addition of TMB reagent (following the manufacturer's recommendation; KPL; 50-76-00) for 15 min prior to the addition of an equal volume of 1 M phosphoric acid for 10 min Absorbance was measured at 450 nm using a Tekan M1000 plate reader. Values were collected and plotted using Prism Graphpad software. All assay conditions using peptides were at 1% DMSO final concentration. […]
# Briefly, the assays were performed using (a) FZD1 CRD-Fc, (b) FZD2 CRD-Fc, (c) FZD4 CRD-Fc, or (d) FZD7 CRD-Fc as the capture reagent and biotinylated-Wnt5a as the detection reagent. […] Streptavidin-HRP was used to detect biotinylated Wnt5a, and HRP activity was measured as a function of chemiluminescence detection at 428 nm. […]
# [2] = test system: intestinal organoid samples; experiment: RNA sequencing of intestinal organoids; type: cell-based, mouse; details: 6 and 24 h
# Procedure: RNA-Seq libraries were prepared using TruSeq RNA Sample Preparation kit (Illumina, CA). The libraries were sequenced on Illumina HiSeq 2500 sequencers to obtain on average 34 million single-end reads (50 bp) per sample. RNAseq reads were first aligned to ribosomal RNA sequences to remove ribosomal reads. The remaining reads were aligned to the mouse reference genome (NCBI Build 38) using GSNAP (version 2013-10-10) (Wu, T. D. & Nacu, S. Fast and SNP-tolerant detection of complex variants and splicing in short reads. Bioinformatics 26, 873-881 (2010)) allowing a maximum of two mismatches per 50 base sequence (parameters: ‘-M 2-n 10-B 2-i 1-N 1-w 200000-E 1-pairmax-rna=200000-clip-overlap’). Transcript annotation was based on the RefSeq database (NCBI Annotation Release 104). To quantify gene expression levels, the number of reads mapped to the exons of each RefSeq gene was calculated. Read counts were scaled by library size, quantile normalized and precision weights calculated using the “voom” R package (Law, C. W., Chen, Y., Shi, W. & Smyth, G. K. voom: precision weights unlock linear model analysis tools for RNA-seq read counts. Genome Biology 15, R29 (2014)). […] In addition, gene expression was obtained in form of normalized Reads Per Kilobase gene model per Million total reads (nRPKM) as described earlier (Srinivasan, K. et al. Untangling the brain's neuroinflammatory and neurodegenerative transcriptional responses. Nat Commun 7, 11295 (2016)). […]
# We performed Quantitative Set Analysis for Gene Expression (QuSAGE) (Yaari, G., Bolen, C. R., Thakar, J. & Kleinstein, S. H. Quantitative set analysis for gene expression: a method to quantify gene set differential expression including gene-gene correlations. Nucleic Acids Research 41, e170-e170 (2013)) to identify relevant biological processes associated with Wnt inhibition. […]
sequence,measurement,setting,value
"LPSDDLEFWSHVMY [Fz7-21S, negative control]",effect on Wnt5a binding to FZD4 CRD,[1],showed no effect
same,expression of markers of Lgr5+ ISCs and reserve ISCs,[2],Little or no change in gene expression
LPSDDLEFWCHVMY [dFz7-21],effect on Wnt5a binding to FZD4 CRD,[1],did not show any effect; also recorded: no such effect
same,enterocyte markers,[2],up-regulation
same,expression of markers of Lgr5+ ISCs and reserve ISCs,[2],substantial down-regulation
